PubChem BioAssay AID1259407 (Chemical Carcinogenesis Research Information System (CCRIS), 2018)
Calls of active or inactive are those of the source. How the calls were made is not given here.

System: CCRIS mutagenicity, Ames/micronucleus/aberration tests
Experiment: CCRIS mutagenicity studies
[1] = Test System: AMES SALMONELLA TYPHIMURIUM, Strain/Indicator: TA98, Metabolic Activation: NONE, Method: PREINCUBATION
[2] = Test System: AMES SALMONELLA TYPHIMURIUM, Strain/Indicator: TA100, Metabolic Activation: NONE, Method: PREINCUBATION
[3] = Test System: AMES SALMONELLA TYPHIMURIUM, Strain/Indicator: TA100, Metabolic Activation: NONE, Method: STANDARD PLATE
[4] = Test System: AMES SALMONELLA TYPHIMURIUM, Strain/Indicator: TA98, Metabolic Activation: NONE, Method: STANDARD PLATE
[5] = Test System: AMES SALMONELLA TYPHIMURIUM, Strain/Indicator: TA98, Metabolic Activation: RAT, LIVER, S-9, AROCLOR 1254, Method: STANDARD PLATE
[6] = Test System: AMES SALMONELLA TYPHIMURIUM, Strain/Indicator: TA1535, Metabolic Activation: NONE, Method: STANDARD PLATE
[7] = Test System: AMES SALMONELLA TYPHIMURIUM, Strain/Indicator: TA1537, Metabolic Activation: NONE, Method: STANDARD PLATE
[8] = Test System: AMES SALMONELLA TYPHIMURIUM, Strain/Indicator: TA100, Metabolic Activation: RAT, LIVER, S-9, AROCLOR 1254, Method: STANDARD PLATE
[9] = Test System: AMES SALMONELLA TYPHIMURIUM, Strain/Indicator: TA1535, Metabolic Activation: RAT, LIVER, S-9, AROCLOR 1254, Method: STANDARD PLATE

CCSc1cc(Cc2ccc(N)c(SCC)c2)ccc1N
mutagenic call [1]: inactive; negative | mutagenic call (Test System: AMES SALMONELLA TYPHIMURIUM, Strain/Indicator: TA98, Metabolic Activation: RAT, LIVER, S-9, PCB, Method: PREINCUBATION): active; positive | mutagenic call [2]: inactive; negative | mutagenic call (Test System: AMES SALMONELLA TYPHIMURIUM, Strain/Indicator: TA100, Metabolic Activation: RAT, LIVER, S-9, PCB, Method: PREINCUBATION): active; positive

CC(=O)Nc1ccc(-c2ccc(NO)cc2)cc1
mutagenic call (Test System: CHINESE HAMSTER OVARY, Strain/Indicator: CHO-K1-BH4 (HGPRT), Metabolic Activation: NONE, Method: SUSPENSION): active; positive

O=c1c2ccc(OCC3CO3)cc2sn1CC1CO1 (centres undefined)
mutagenic call [3]: active; positive

CC1=C(N=O)CNc2c1nc1c(C)cccn21
mutagenic call [4]: active; positive | mutagenic call (Test System: AMES SALMONELLA TYPHIMURIUM, Strain/Indicator: TA98, Metabolic Activation: RAT, LIVER, CYTOSOL, AROCLOR 1254, Method: STANDARD PLATE): active; positive | mutagenic call (Test System: AMES SALMONELLA TYPHIMURIUM, Strain/Indicator: TA98, Metabolic Activation: RAT, LIVER, MICROSOMES, AROCLOR 1254, Method: STANDARD PLATE): active; positive | mutagenic call [5]: active; positive

CCN(CC)CC#CC(C)(C)OC(=O)C(O)(c1ccccc1)C1CCCCC1 (centres undefined)
mutagenic call [4]: inactive; negative | mutagenic call (Test System: AMES SALMONELLA TYPHIMURIUM, Strain/Indicator: TA98, Metabolic Activation: RAT, LIVER, S-9, PHENOBARBITAL AND 5,6-BENZOFLAVONE, Method: STANDARD PLATE): inactive; negative | mutagenic call [3]: inactive; negative | mutagenic call (Test System: AMES SALMONELLA TYPHIMURIUM, Strain/Indicator: TA100, Metabolic Activation: RAT, LIVER, S-9, PHENOBARBITAL AND 5,6-BENZOFLAVONE, Method: STANDARD PLATE): inactive; negative | mutagenic call [6]: inactive; negative | mutagenic call (Test System: AMES SALMONELLA TYPHIMURIUM, Strain/Indicator: TA1535, Metabolic Activation: RAT, LIVER, S-9, PHENOBARBITAL AND 5,6-BENZOFLAVONE, Method: STANDARD PLATE): inactive; negative | mutagenic call [7]: inactive; negative | mutagenic call (Test System: AMES SALMONELLA TYPHIMURIUM, Strain/Indicator: TA1537, Metabolic Activation: RAT, LIVER, S-9, PHENOBARBITAL AND 5,6-BENZOFLAVONE, Method: STANDARD PLATE): inactive; negative | mutagenic call (Test System: E. COLI, Strain/Indicator: WP2 UVRA, Metabolic Activation: NONE, Method: STANDARD PLATE): inactive; negative | mutagenic call (Test System: E. COLI, Strain/Indicator: WP2 UVRA, Metabolic Activation: RAT, LIVER, S-9, PHENOBARBITAL AND 5,6-BENZOFLAVONE, Method: STANDARD PLATE): inactive; negative

c1ccc([C@H]2O[C@@H]2c2ccccc2)cc1
mutagenic call [3]: inactive; negative | mutagenic call [6]: inactive; negative

O=C1CC[C@@]2(O)[C@H]3Cc4ccc(O)c5c4[C@@]2(CCN3CC2CC2)[C@H]1O5
mutagenic call (Test System: UDS HUMAN FIBROBLASTS, Strain/Indicator: THY INCORP (NON-S-PHASE), Metabolic Activation: NONE, Method: AUTORADIOGRAPHY): active; positive

O=CC=C(Cl)Cl
mutagenic call [4]: active; positive | mutagenic call [5]: inactive; negative | mutagenic call [3]: active; positive | mutagenic call [8]: active; positive | mutagenic call [6]: active; positive | mutagenic call [9]: active; positive | mutagenic call [7]: inactive; negative | mutagenic call (Test System: AMES SALMONELLA TYPHIMURIUM, Strain/Indicator: TA1537, Metabolic Activation: RAT, LIVER, S-9, AROCLOR 1254, Method: STANDARD PLATE): inactive; negative

ClNc1ccc2c(c1)Cc1ccccc1-2
mutagenic call [5]: active; positive

CCCCN(CC(C)=O)N=O
mutagenic call (Test System: AMES SALMONELLA TYPHIMURIUM, Strain/Indicator: TA1535, Metabolic Activation: RAT, LIVER, S-9, KC500 OR PHENOBARBITAL, Method: LIQUID SUSPENSION): active; positive

CC(Cl)CCl (centres undefined)
mutagenic call (End Point: IN VITRO CHROMOSOMAL ABERRATIONS, Test System: CHINESE HAMSTER OVARY CELLS, Metabolic Activation: RAT, LIVER, S-9, AROCLOR 1254): active; positive | mutagenic call [1]: inactive; negative | mutagenic call (Test System: AMES SALMONELLA TYPHIMURIUM, Strain/Indicator: TA98, Metabolic Activation: RAT LIVER S-9, PHENOBARBITAL AND BETA-NAPHTHOFLAVONE, Method: PREINCUBATION): inactive; negative | mutagenic call [2]: inactive; negative | mutagenic call [3]: active; positive | mutagenic call (Test System: AMES SALMONELLA TYPHIMURIUM, Strain/Indicator: TA100, Metabolic Activation: RAT LIVER S-9, PHENOBARBITAL AND BETA-NAPHTHOFLAVONE, Method: PREINCUBATION): inactive; negative | mutagenic call [8]: active; positive | mutagenic call (Test System: AMES SALMONELLA TYPHIMURIUM, Strain/Indicator: TA102, Metabolic Activation: NONE, Method: PREINCUBATION): inactive; negative | mutagenic call (Test System: AMES SALMONELLA TYPHIMURIUM, Strain/Indicator: TA102, Metabolic Activation: RAT LIVER S-9, PHENOBARBITAL AND BETA-NAPHTHOFLAVONE, Method: PREINCUBATION): inactive; negative | mutagenic call (Test System: AMES SALMONELLA TYPHIMURIUM, Strain/Indicator: TA104, Metabolic Activation: NONE, Method: PREINCUBATION): inactive; negative | mutagenic call (Test System: AMES SALMONELLA TYPHIMURIUM, Strain/Indicator: TA104, Metabolic Activation: RAT LIVER S-9, PHENOBARBITAL AND BETA-NAPHTHOFLAVONE, Method: PREINCUBATION): inactive; negative | mutagenic call (Test System: AMES SALMONELLA TYPHIMURIUM, Strain/Indicator: TA1535, Metabolic Activation: NONE, Method: PREINCUBATION): inactive; negative | mutagenic call [6]: active; positive | mutagenic call (Test System: AMES SALMONELLA TYPHIMURIUM, Strain/Indicator: TA1535, Metabolic Activation: RAT LIVER S-9, PHENOBARBITAL AND BETA-NAPHTHOFLAVONE, Method: PREINCUBATION): inactive; negative | mutagenic call [9]: active; positive | mutagenic call (Test System: AMES SALMONELLA TYPHIMURIUM, Strain/Indicator: TA1537, Metabolic Activation: NONE, Method: PREINCUBATION): inactive; negative | mutagenic call (Test System: AMES SALMONELLA TYPHIMURIUM, Strain/Indicator: TA1537, Metabolic Activation: RAT LIVER S-9, PHENOBARBITAL AND BETA-NAPHTHOFLAVONE, Method: PREINCUBATION): inactive; negative | mutagenic call (Test System: E.COLI, Strain/Indicator: WP2UVRA/PKM101, Metabolic Activation: NONE, Method: PREINCUBATION): inactive; negative | mutagenic call (Test System: E.COLI, Strain/Indicator: WP2UVRA/PKM101, Metabolic Activation: RAT LIVER S-9, PHENOBARBITAL AND BETA-NAPHTHOFLAVONE, Method: PREINCUBATION): inactive; negative | mutagenic call (Test System: E.COLI, Strain/Indicator: WP2UVRA, Metabolic Activation: NONE, Method: PREINCUBATION): inactive; negative | mutagenic call (Test System: E.COLI, Strain/Indicator: WP2UVRA, Metabolic Activation: RAT LIVER S-9, PHENOBARBITAL AND BETA-NAPHTHOFLAVONE, Method: PREINCUBATION): inactive; negative
